# Test results from patent publication EP1137645B1, “ALPHA-METHYLBENZYL-CONTAINING THIOUREA INHIBITORS OF HERPES VIRUSES CONTAINING A […] GROUP” (Wyeth, priority 1998, dated 2000).
# Read-outs that look alike come from different tables or passages of the source.
# Experiments:
# [1] = test system: VZV strain Ellen; test: VZV antiviral (ELISA) assay; assay type: cell-based
# Procedure, shortened: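 HFF cells infected with VZV Ellen at multiplicity below 0.1 overnight, then mixed infected/uninfected cells seeded with compound in DMEM/2% FBS and incubated three days at 37°C, 5% CO2.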
# [2] = test system: HSV- I; test: HSV antiviral (ELISA) assay; assay type: cell-based; settings: read-out: IC50 (ug/ml) HSV
# Procedure, shortened: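 Vero cells in DMEM with 2% FBS treated with compound 30 min before HSV-1 infection (MOI 0.006), then incubated ~24 h at 37°C. Viral replication measured by ELISA against glycoprotein D with β-galactosidase-linked secondary and fluorogenic substrate (ex 365/em 450 nm); IC50 relative to untreated fluorescence.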
# [3] = test system: HCMV recombinant mutant virus whose genome contains the prokaryotic beta-glucuronidase gene; test: microbe, parasite or virus in culture; assay type: cell-based, human cytomegalovirus; settings: Human betaherpesvirus 5, Fibroblast
# Procedure, shortened: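 Human foreskin fibroblasts infected with HCMV recombinant carrying beta-glucuronidase under a viral promoter (e.g. RV145) in presence of compound. At 96 h post-infection, lysates assayed for beta-glucuronidase by colorimetric or fluorogenic substrate as replication readout; IC50 estimated from varying compound amounts.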
# [4] = Human alphaherpesvirus 3, VZV strain Ellen, HFF cells, ELISA, read-out: IC50 (ug/ml) VZV
# [5] = Human alphaherpesvirus 3, HFF, read-out: IC50 (ug/ml) VZV, VZV strain Ellen, HFF cells, ELISA
# [6] = read-out: IC50 ug/ml HCMV, HCMV, human foreskin fibroblasts
# [7] = Human alphaherpesvirus 3, read-out: % inhibition 10 ug/ml VZV, 10 ug/ml, VZV strain Ellen, HFF cells, ELISA
# [8] = Human alphaherpesvirus 3, HFF, read-out: % inhibition 10 ug/ml VZV
# [9] = Human alphaherpesvirus 3, HFF, read-out: IC50 (ug/ml) VZV
Structure (SMILES),"IC50 [1, 4] [µg/mL]","IC50 ([2]; HSV- I, Vero cells, ELISA) [µg/mL]",IC50 ([3]; read-out: IC50 ug/ml HCMV) [µg/mL],"IC50 [1, 5] [µg/mL]",IC50 ([2]; Vero) [µg/mL],"IC50 [3, 6] [µg/mL]","inhibition at 10 µg/mL [1, 7] [%]","inhibition at 10 µg/mL [1, 8] [%]","IC50 [1, 9] [µg/mL]"
"COc1ccc(NC(=S)Nc2ccc(NC(=O)c3ccccc3F)cc2)cc1I [Example 810, 2-Fluoro-N-{4-[3-(3-iodo-4-methoxy-phenyl)-thioureido]-phenyl}-benzamide]",> 7.5,1.1,2.7,–,–,–,–,–,–
"C[C@@H](NC(=S)Nc1ccc(NC(=O)c2ccccc2F)cc1)c1ccc(Cl)cc1 [Example 1014, N-(4-{3-[(1R)-1-(4-Chloro-phenyl)-ethyl]-thioureido}-phenyl)-2-fluoro-benzamide]",–,–,–,> 7.5,> 10,2.9,–,–,–
"CCCCN(C)c1cc(NC(=S)Nc2ccc(NC(=O)c3ccccc3F)cc2)cc(C(F)(F)F)c1 [Example 598, N-(4-{3-[3-(Butyl-methyl-amino)-5-trifluoromethyl-phenyl]-thioureido}-phenyl)-2-fluoro-benzamide]",–,–,–,> 10,> 10,> 10,–,–,–
"O=C(Nc1ccc(NC(=S)Nc2cccc([N+](=O)[O-])c2)cc1)c1ccccc1F [Example 959, 2-Fluoro-N-{4-[3-(3-nitro-phenyl)-thioureido]-phenyl}-benzamide]",> 10,0.7,> 10,–,–,–,33,–,–
"COc1cc(OCC(F)(F)F)ccc1NC(=S)Nc1ccc(NC(=O)c2ccccc2F)cc1 [Example 1006, 2-Fluoro-N-(4-{3-[2-methoxy-4-(2,2,2-trifluoro-ethoxy)-phenyl]-thioureido}-phenyl)-benzamide]",11,8.3,8.9,–,–,–,–,–,–
"CS(=O)(=O)Nc1ccc(NC(=S)Nc2ccc(NC(=O)c3ccccc3F)cc2)cc1Cl [Example 370, N-{4-[3-(3-Chloro-4-methanesulfonylamino-phenyl)-thioureido]-phenyl}-2-fluoro-benzamide]",–,> 10,–,–,–,> 10,–,16,> 10
"CS(=O)(=O)c1ccc(NC(=S)Nc2ccc(NC(=O)c3c(F)cccc3F)cc2)cc1Cl [Example 393, N-{4-[3-(3-Chloro-4-methanesulfonyl-phenyl)-thioureido]-phenyl}-2,6-difluoro-benzamide]",–,> 10,–,–,–,0.5,–,62,> 10
"COc1cc(OC)c(NC(=S)Nc2ccc(NC(=O)c3cc(F)ccc3F)cc2)cc1Cl [Example 187, N-{4-[3-(5-Chloro-2,4-dimethoxy-phenyl)-thioureido]-phenyl}-2,5-difluoro-benzamide]",–,0.2,–,–,–,> 10,–,53,> 10
"COc1ccccc1C(=O)Nc1ccc(NC(=S)NC(C)c2cc3ccccc3o2)cc1 (stereo not shown) [Example 1018, N-{4-[3-(1-Benzofuran-2-yl-ethyl)-thioureido]-phenyl}-2-methoxy-benzamide]",–,–,–,0.09,> 10,> 10,–,–,–
"COc1ccc(C(C)NC(=S)Nc2ccc(NC(=O)c3ccccc3F)cc2)cc1Cl (stereo not shown) [Example 1000, N-(4-{3-[1-(3-Chloro-4-methoxy-phenyl)-ethyl]-thioureido}-phenyl)-2-fluoro-benzamide]",–,–,–,6,> 10,2,–,–,–
"O=C(Nc1ccc(NC(=S)Nc2ccc(OC(F)(F)F)c(Br)c2)cc1)c1ccccc1F [Example 549, N-{4-[3-(3-Bromo-4-trifluoromethoxy-phenyl)-thioureido]-phenyl}-2-fluoro-benzamide]",–,–,–,> 10,> 10,> 10,–,–,–
"CC(=O)c1cccc(NC(=S)Nc2ccc(NC(=O)c3ccccc3F)cc2)c1 [Example 965, N-{4-[3-(3-Acetyl-phenyl)-thioureido]-pbenyl}-2-fluoro-benzamide]",–,5,–,–,–,> 10,–,12,> 10
"CN(c1ccc(NC(=S)Nc2ccc(NC(=O)c3ccccc3F)cc2)cc1Cl)C1CCN(Cc2ccccc2)C1 (stereo not shown) [Example 857, N-[4-(3-{4-[(1-Benzyl-pyrrolidin-3-yl)-methyl-amino]-3-chloro-phenyl)-thioureido)-phenyl]-2-fluoro-benzamide]",–,2,–,–,–,6,–,80,7
"COC(=O)c1cccc(C(=O)Nc2ccc(NC(=S)Nc3cc(Cl)c(OC)cc3OC)cc2)c1 [Example 208, N-{4-[3-(5-Chloro-2,4-dimethoxy-phenyl)-thioureido]-phenyl}-isophthalamic acid methyl ester]",–,10,–,–,–,> 10,–,25,> 10
"CC(NC(=S)Nc1ccc(NC(=O)c2ccccc2F)cc1)c1ccc(C(F)(F)F)cc1 (stereo not shown) [Example 787, 2-Fluoro-N-(4-{3-[1-(4-trifluoromethyl-phenyl)-ethyl]-thioureido}-phenyl)-benzamide]",> 7.5,> 10,1.2,–,–,–,–,–,–
"COc1cc(OC)c(NC(=S)Nc2ccc(NC(=O)c3ccccc3NS(C)(=O)=O)cc2)cc1Cl [Example 191, N-{4-[3-(5-Chloro-2,4-dimethoxy-phenyl)-thioureido]-phenyl}-2-methane-sulfonylamino-benzamide]",–,–,–,> 10,8,> 10,–,22,–
"O=C(CN1CCOCC1)Nc1ccc(NC(=S)Nc2ccc(NC(=O)c3ccccc3F)cc2)cc1Cl [Example 367, N-(4-{3-[3-Chloro-4-(2-morpholin-4-yl-acetylamino)-phenyl]-thioureido}-phenyl)-2-fluoro-benzamide]",–,> 10,–,–,–,> 10,–,20,> 10
"Nc1cccc(NC(=S)Nc2ccc(NC(=O)c3ccccc3F)cc2)c1 [Example 434, N-{4-[3-(3-Amino-phenyl)-thioureido]-phenyl}-2-fluoro-benzamide]",> 10,10,5,–,–,–,0,–,–
"COc1c(Cl)cc(NC(=S)Nc2ccc(NC(=O)c3ccc(F)cc3)cc2)cc1Cl [Example 133, N-{4-[3-(3,5-Dichloro-4-methoxy-phenyl)-thioureido]-phenyl}-4-fluoro-benzamide]",–,7,–,–,–,0.6,–,36,> 10
"COc1cc(OC)c(NC(=S)Nc2ccc(NC(=O)c3cccc(OCC(=O)O)c3)cc2)cc1Cl [Example 222, (3-{4-[3-(5-Chloro-2,4-dimethoxy-phenyl)-thioureido]-phenylcarbamoyl}-phenoxy)-acetic acid]",–,> 50,–,–,–,> 50,–,17,> 10
"CCOC(=O)Nc1cccc(C(=O)Nc2ccc(NC(=S)Nc3cc(Cl)c(OC)cc3OC)cc2)c1 [Example 180, (3-{4-[3-(5-Chloro-2,4-dimethoxy-phenyl)-thioureido]-phenylcarbamoyl}-phenyl)-carbamic acid ethyl ester]",–,–,–,> 10,1.3,1.5,–,36,–
"CC(NC(=S)Nc1ccc(NC(=O)c2ccccc2C(F)(F)F)cc1)c1cc2ccccc2o1 (stereo not shown) [Example 974, N-{4-[3-(1-Benzofuran-2-yl-ethyl)-thioureido]-phenyl}-2-trifluoromethyl-benzamide]",–,–,–,> 7.5,> 10,> 10,–,–,–
